Data from ChEMBL document CHEMBL4130490, “Discovery of Benzo[g]quinazolin benzenesulfonamide derivatives as dual EGFR/HER2 inhibitors” (Eur J Med Chem, 2017).

Legend:
[1] = tested on: A549; assay: Cytotoxicity against human A549 cells after 24 hrs by MTT assay; type: functional, cell-based; conditions: A549, 24 h
[2] = molecular target: Receptor tyrosine-protein kinase erbB-2 (Homo sapiens, UniProt P04626); assay: Inhibition of recombinant human His-tagged HER2 cytoplasmic domain (676 to 1255 residues) expressed in baculovirus virus expression system after 1 hr by ELISA
[3] = tested on: A549; assay: Induction of apoptosis in human A549 cells assessed as increase in active caspase-3 level by immunoassay relative to control; type: functional
[4] = molecular target: Epidermal growth factor receptor (Homo sapiens, UniProt P00533); assay: Inhibition of recombinant human GST-tagged EGFR cytoplasmic domain (668 to 1210 residues) expressed in baculovirus virus expression system after 1 hr by ELISA
Epidermal growth factor receptor, sequence (P00533 whole entry, the tested form may be a part): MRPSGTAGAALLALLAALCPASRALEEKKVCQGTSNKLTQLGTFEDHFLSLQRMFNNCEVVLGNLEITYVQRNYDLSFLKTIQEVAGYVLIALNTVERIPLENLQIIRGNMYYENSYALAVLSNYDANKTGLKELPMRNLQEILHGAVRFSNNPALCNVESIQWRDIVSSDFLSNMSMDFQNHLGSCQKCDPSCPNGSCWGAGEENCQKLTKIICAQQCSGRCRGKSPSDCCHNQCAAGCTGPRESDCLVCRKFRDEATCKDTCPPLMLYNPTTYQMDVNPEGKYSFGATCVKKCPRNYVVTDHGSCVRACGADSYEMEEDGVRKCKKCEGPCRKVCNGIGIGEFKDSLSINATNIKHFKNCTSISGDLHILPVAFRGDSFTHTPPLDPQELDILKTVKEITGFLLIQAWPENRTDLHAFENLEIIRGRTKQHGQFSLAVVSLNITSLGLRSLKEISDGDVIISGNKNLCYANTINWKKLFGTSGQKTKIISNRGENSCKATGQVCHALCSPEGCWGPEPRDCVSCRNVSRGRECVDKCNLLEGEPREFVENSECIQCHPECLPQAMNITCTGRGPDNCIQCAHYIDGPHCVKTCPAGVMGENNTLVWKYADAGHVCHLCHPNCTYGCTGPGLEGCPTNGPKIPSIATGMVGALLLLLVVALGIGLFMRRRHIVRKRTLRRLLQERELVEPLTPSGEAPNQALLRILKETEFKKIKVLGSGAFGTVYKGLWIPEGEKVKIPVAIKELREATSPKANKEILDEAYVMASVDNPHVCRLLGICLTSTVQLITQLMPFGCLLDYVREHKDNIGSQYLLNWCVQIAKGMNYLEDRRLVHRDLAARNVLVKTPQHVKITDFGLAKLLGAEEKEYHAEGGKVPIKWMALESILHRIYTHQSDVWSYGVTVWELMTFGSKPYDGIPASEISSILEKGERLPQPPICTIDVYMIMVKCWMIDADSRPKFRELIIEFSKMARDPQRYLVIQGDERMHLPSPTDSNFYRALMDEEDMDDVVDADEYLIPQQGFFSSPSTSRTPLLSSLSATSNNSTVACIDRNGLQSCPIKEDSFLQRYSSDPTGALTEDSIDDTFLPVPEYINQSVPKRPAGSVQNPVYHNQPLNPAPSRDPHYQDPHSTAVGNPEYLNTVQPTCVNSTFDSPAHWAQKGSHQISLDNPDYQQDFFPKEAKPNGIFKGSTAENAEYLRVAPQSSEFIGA

Receptor tyrosine-protein kinase erbB-2, sequence (P04626 whole entry, the tested form may be a part): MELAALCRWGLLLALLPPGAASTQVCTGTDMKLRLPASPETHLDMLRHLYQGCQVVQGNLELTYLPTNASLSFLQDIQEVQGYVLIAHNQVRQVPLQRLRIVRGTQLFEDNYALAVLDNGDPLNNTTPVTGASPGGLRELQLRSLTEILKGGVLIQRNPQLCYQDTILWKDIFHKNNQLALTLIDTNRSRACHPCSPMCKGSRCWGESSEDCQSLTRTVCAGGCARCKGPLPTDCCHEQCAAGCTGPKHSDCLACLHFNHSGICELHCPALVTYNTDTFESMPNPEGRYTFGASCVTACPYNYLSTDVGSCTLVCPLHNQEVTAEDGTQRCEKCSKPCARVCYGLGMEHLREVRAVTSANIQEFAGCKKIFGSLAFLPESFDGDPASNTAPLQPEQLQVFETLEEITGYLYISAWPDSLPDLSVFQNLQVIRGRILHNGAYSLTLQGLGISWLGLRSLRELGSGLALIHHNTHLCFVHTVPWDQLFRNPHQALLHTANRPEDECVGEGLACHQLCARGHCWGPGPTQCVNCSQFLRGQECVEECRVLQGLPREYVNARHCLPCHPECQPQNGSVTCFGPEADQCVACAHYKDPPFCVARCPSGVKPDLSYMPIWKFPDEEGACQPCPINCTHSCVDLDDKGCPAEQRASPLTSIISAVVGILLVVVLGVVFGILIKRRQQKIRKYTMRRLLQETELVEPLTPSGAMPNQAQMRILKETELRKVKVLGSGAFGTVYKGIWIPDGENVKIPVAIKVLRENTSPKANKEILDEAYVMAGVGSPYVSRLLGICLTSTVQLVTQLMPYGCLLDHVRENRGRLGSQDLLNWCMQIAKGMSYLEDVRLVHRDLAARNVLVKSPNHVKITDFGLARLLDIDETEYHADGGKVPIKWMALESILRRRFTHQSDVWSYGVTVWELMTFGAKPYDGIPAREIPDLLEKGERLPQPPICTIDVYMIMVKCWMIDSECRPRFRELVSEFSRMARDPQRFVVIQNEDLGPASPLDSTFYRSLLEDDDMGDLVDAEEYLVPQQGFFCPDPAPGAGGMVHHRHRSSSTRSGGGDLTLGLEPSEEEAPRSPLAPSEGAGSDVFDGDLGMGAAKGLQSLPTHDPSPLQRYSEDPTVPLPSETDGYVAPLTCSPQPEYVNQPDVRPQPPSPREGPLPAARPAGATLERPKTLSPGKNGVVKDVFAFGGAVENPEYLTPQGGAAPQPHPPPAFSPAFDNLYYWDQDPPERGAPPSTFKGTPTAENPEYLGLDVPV

IC50 [2]	IC50 [4]	SMILES	IC50 [1]	fold change (FC) [3]
		NS(=O)(=O)c1ccc(-n2c(SCC(=O)Nc3ccncc3)nc3cc4ccccc4cc3c2=O)cc1	500 nM	
		NS(=O)(=O)c1ccc(-n2c(SCC(=O)Nc3ccc(I)cc3)nc3cc4ccccc4cc3c2=O)cc1	2530 nM	
		NS(=O)(=O)c1ccc(-n2c(SCC(=O)Nc3ccccn3)nc3cc4ccccc4cc3c2=O)cc1	3520 nM	
		NS(=O)(=O)c1ccc(-n2c(SCC(=O)Nc3c(Cl)cc(Cl)cc3Cl)nc3cc4ccccc4cc3c2=O)cc1	1070 nM	
760 nM		NS(=O)(=O)c1ccc(-n2c(SCC(=O)Nc3cc(Cl)c(Cl)cc3Cl)nc3cc4ccccc4cc3c2=O)cc1	290 nM	6.28
		Cc1cccc([N+](=O)[O-])c1NC(=O)CSc1nc2cc3ccccc3cc2c(=O)n1-c1ccc(S(N)(=O)=O)cc1	1480 nM	
390 nM	110 nM	NS(=O)(=O)c1ccc(-n2c(SCC(=O)Nc3cnc4ccccc4c3)nc3cc4ccccc4cc3c2=O)cc1	120 nM	8.49
		NS(=O)(=O)c1ccc(-n2c(SCC(=O)Nc3ccc(Br)cc3Br)nc3cc4ccccc4cc3c2=O)cc1	1500 nM	
		NS(=O)(=O)c1ccc(-n2c(SCC(=O)Nc3ccc(Cl)cn3)nc3cc4ccccc4cc3c2=O)cc1	1020 nM	
		NS(=O)(=O)c1ccc(-n2c(SCC(=O)Nc3ccc(Br)cc3)nc3cc4ccccc4cc3c2=O)cc1	8700 nM	
		NS(=O)(=O)c1ccc(-n2c(SCC(=O)NCc3ccc4c(c3)OCO4)nc3cc4ccccc4cc3c2=O)cc1	1360 nM	
		NS(=O)(=O)c1ccc(-n2c(SCC(=O)Nc3cccnc3)nc3cc4ccccc4cc3c2=O)cc1	490 nM	
		NS(=O)(=O)c1ccc(-n2c(SCC(=O)Nc3cccnc3Cl)nc3cc4ccccc4cc3c2=O)cc1	670 nM	
		NS(=O)(=O)c1ccc(-n2c(SCC(=O)Nc3ccccc3Cl)nc3cc4ccccc4cc3c2=O)cc1	1160 nM	
300 nM	60 nM	NS(=O)(=O)c1ccc(-n2c(SCC(=O)Nc3ccc([N+](=O)[O-])cc3[N+](=O)[O-])nc3cc4ccccc4cc3c2=O)cc1	280 nM	9.35
